Patent US9371265B2, “Compositions and methods related to inhibitors of JAK kinase” (EP PHARMA, INC., priority 2012, dated 2016)

Assays:
p38-alpha = p38-alpha (Homo sapiens, UniProt Q16539); assay: Kinase panel: p38-alpha; assay type: biochemical; conditions: 10 μM EP009
Protocol: (§1) Achieving JAK3 selectivity remains a significant challenge in the development of new small molecules for the treatment of cancer and immune-derived diseases. As such, the inventors employed cell-based screening assays of small-molecule libraries based upon the chemical scaffold of the established JAK3 inhibitor NC1153 (Stepkowski et al., J Immunol. (2005), 175(7):4236-4246) EP009 (FIG. 2A) was selected as a lead compound due to improved intrinsic stability (>95% purity in various solvents at 37° C. for 24 hours; FIG. 3) and high-degree of JAK3 selectivity. To test JAK3 versus JAK2 specificity of EP009, the IL-2/JAK3-dependent Kit225, and IL-3/JAK2-dependent BaF/3 cell lines were used. Kit225 and BaF/3 cells growing in the presence of IL-2 or IL-3, respectively, were treated with ascending concentrations of EP009 for 12 hours and cellular JAK3 and JAK2 tyrosine phosphorylation levels detected by Western blot analysis (FIGS. 2B and 2C). Following densitometric analysis, EP009 was determined to dose-dependently reduce IL-2-mediated JAK3 tyrosine phosphorylation with a cellular 50% inhibitory concentration (IC50) between 10 and 20 μM (FIG. 2B). […] To globally evaluate specificity, the inhibitory activity of EP009 was measured against a panel of protein kinases distributed throughout the kinome using the scanEDGE profiling service (KINOMEscan). […]

AXL = AXL (Homo sapiens, UniProt P30530); assay: Kinase panel: AXL; assay type: biochemical; conditions: 10 μM EP009
Protocol: as §1

ACVR1B = ACVR1B (Homo sapiens, UniProt P36896); assay: Kinase panel: ACVR1B; assay type: biochemical; conditions: 10 μM EP009
Protocol: as §1

FLT3 = FLT3 (Homo sapiens, UniProt P36888); assay: Kinase panel: FLT3; assay type: biochemical; conditions: 10 μM EP009
Protocol: as §1

AURKB = AURKB (Homo sapiens, UniProt Q96GD4); assay: Kinase panel: AURKB; assay type: biochemical; conditions: 10 μM EP009
Protocol: as §1

CHEK1 = CHEK1 (Homo sapiens, UniProt O14757); assay: Kinase panel: CHEK1; assay type: biochemical; conditions: 10 μM EP009
Protocol: as §1

DCAMKL1 = DCAMKL1 (Homo sapiens, UniProt O15075); assay: Kinase panel: DCAMKL1; assay type: biochemical; conditions: 10 μM EP009
Protocol: as §1

[1] = system: IL-3/JAK2-dependent BaF/3 cells; assay: BaF/3 cell viability (MTS); assay type: cell-based, murine; conditions: identical concentrations of EP009 (up to 10 μM), 72 hours
Protocol: FIGS. 2A-2F. […] (B) Kit225 or (C) BaF/3 cells cultured in the presence of IL-2 or IL-3, respectively, were treated with vehicle (PBS; lane a) or increasing amounts of EP009 (0-50 μM; lanes b-h) for 12 hours. Cells were then lysed, clarified, and immunoprecipitated (IP) with anti-JAK3 (α-JAK3) or anti-JAK2 (α-JAK2), and subjected to Western blot (WB) analysis with anti-phosphotyrosine (α-pY). Blots were stripped and reprobed with corresponding antibody to verify equivalent protein loading. (D) Immunopurified JAK3 was subjected to in vitro autokinase analysis after treatment with vehicle (DMSO; lanes a and b) or ascending concentrations of EP009 (0-10 μM; lanes c-f) for 1 hour at room temperature. […] (E) Kit225 or BaF/3 cells were cultured with increasing amounts of EP009 (0-10 μM) for 72 hours and cell viability measured with the MTS tetrazolium salt assay. Values represent mean absorbance (OD490-OD650 nm) normalized to vehicle (PBS) treated control cells, while error bars represent the standard deviation (n=3). (F) HEK293, HEPG2, or naïve primary human PBMCs were cultured with increasing amounts of EP009 (0-10 μM) for 72 hours and cell viability measured with the MTS tetrazolium salt assay. Values represent mean absorbance (OD490-OD650 nm) normalized to vehicle (PBS) treated control cells, while error bars represent the standard deviation (n=3). […]

EGFR = EGFR (Homo sapiens, UniProt P00533); assay: Kinase panel: EGFR; assay type: biochemical; conditions: 10 μM EP009
Protocol: as §1

MAP3K4 = MAP3K4 (Homo sapiens, UniProt Q9Y6R4); assay: Kinase panel: MAP3K4; assay type: biochemical; conditions: 10 μM EP009
Protocol: as §1

KIT(D816V) = KIT(D816V) (Homo sapiens, UniProt P10721, D816V); assay: Kinase panel: KIT(D816V); assay type: biochemical; conditions: 10 μM EP009
Protocol: as §1

[2] = target: ABL1(T315I)-phosphorylated (Homo sapiens, UniProt P00519, T315I); assay: Kinase panel: ABL1(T315I)-phosphorylated; assay type: biochemical; conditions: 10 μM EP009
Protocol: as §1

BMPR2 = BMPR2 (Homo sapiens, UniProt Q13873); assay: Kinase panel: BMPR2; assay type: biochemical; conditions: 10 μM EP009
Protocol: as §1

KIT(D816V), sequence (P10721 26-976 D816V): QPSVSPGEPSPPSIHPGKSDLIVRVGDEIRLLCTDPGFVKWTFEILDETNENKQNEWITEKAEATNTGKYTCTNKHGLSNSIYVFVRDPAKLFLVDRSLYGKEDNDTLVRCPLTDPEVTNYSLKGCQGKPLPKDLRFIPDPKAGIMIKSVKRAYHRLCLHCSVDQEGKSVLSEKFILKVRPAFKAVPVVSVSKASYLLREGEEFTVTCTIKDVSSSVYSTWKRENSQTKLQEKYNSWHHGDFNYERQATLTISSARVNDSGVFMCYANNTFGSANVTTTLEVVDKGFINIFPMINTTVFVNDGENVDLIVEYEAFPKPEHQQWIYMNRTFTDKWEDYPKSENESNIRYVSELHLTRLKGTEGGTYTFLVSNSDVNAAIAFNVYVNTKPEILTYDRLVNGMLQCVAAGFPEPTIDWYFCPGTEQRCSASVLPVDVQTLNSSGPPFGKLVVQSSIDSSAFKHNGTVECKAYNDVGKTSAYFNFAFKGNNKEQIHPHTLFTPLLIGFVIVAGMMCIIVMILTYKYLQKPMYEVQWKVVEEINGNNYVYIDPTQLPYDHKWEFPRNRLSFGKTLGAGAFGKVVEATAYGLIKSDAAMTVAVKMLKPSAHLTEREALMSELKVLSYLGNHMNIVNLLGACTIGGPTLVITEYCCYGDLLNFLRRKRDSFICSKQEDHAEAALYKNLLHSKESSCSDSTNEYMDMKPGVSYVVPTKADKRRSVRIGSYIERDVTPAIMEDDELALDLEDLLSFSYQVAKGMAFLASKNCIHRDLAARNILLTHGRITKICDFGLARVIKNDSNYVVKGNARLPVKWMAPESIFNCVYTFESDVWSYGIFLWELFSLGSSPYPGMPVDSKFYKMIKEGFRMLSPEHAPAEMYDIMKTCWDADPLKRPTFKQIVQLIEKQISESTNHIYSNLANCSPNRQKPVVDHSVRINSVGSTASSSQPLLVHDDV
MAP3K4, sequence (Q9Y6R4 whole entry): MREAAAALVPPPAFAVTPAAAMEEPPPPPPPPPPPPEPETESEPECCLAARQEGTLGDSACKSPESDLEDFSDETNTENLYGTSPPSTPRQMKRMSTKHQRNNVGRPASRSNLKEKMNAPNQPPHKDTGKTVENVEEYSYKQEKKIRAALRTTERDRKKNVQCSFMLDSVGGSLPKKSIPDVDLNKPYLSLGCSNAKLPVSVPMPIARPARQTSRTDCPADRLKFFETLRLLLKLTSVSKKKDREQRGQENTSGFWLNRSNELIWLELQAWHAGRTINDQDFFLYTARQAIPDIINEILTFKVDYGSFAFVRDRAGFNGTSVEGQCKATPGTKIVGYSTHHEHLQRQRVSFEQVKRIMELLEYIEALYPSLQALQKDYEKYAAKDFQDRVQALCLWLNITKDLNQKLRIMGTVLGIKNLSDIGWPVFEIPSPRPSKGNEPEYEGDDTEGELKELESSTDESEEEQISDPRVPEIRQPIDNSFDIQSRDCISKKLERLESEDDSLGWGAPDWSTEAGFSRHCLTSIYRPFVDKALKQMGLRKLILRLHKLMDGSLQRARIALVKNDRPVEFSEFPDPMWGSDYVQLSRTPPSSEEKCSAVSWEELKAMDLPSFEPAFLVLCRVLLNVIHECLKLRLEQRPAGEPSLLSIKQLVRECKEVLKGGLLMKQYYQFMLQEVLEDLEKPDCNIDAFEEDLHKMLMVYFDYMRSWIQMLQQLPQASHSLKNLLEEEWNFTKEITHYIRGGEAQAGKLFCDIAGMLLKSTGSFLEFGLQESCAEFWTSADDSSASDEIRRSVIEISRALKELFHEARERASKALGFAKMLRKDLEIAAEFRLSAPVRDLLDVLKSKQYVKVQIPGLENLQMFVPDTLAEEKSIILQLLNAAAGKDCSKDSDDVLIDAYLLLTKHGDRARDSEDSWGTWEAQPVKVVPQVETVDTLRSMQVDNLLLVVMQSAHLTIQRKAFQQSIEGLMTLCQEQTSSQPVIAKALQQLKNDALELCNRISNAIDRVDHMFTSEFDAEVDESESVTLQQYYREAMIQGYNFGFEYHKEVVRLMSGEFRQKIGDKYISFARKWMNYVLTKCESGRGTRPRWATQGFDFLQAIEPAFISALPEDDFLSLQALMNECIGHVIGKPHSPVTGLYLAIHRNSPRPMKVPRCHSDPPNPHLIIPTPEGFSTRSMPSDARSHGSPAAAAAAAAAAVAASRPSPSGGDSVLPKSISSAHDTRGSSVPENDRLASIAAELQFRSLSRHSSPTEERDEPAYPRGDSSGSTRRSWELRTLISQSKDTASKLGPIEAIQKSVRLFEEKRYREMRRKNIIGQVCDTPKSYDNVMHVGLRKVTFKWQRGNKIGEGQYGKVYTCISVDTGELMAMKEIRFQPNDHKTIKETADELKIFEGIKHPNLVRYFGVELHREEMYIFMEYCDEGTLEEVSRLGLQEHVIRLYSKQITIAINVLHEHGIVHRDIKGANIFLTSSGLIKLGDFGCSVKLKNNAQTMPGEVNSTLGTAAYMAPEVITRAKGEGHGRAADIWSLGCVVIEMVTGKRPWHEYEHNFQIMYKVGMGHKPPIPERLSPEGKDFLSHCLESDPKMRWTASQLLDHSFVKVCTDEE
CHEK1, sequence (O14757 whole entry): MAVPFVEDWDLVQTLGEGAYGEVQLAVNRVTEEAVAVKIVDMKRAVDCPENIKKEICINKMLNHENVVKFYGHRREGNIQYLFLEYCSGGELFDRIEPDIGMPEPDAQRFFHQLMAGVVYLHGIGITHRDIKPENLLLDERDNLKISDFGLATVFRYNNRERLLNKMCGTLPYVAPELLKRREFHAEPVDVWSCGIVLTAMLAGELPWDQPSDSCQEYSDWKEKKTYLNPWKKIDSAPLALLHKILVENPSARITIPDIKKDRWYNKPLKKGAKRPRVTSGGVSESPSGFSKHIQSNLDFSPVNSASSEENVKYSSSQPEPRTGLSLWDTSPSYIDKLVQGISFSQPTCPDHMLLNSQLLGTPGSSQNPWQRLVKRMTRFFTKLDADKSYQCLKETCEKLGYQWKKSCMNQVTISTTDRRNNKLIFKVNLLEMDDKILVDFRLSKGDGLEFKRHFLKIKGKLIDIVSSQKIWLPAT
BMPR2, sequence (Q13873 27-1038): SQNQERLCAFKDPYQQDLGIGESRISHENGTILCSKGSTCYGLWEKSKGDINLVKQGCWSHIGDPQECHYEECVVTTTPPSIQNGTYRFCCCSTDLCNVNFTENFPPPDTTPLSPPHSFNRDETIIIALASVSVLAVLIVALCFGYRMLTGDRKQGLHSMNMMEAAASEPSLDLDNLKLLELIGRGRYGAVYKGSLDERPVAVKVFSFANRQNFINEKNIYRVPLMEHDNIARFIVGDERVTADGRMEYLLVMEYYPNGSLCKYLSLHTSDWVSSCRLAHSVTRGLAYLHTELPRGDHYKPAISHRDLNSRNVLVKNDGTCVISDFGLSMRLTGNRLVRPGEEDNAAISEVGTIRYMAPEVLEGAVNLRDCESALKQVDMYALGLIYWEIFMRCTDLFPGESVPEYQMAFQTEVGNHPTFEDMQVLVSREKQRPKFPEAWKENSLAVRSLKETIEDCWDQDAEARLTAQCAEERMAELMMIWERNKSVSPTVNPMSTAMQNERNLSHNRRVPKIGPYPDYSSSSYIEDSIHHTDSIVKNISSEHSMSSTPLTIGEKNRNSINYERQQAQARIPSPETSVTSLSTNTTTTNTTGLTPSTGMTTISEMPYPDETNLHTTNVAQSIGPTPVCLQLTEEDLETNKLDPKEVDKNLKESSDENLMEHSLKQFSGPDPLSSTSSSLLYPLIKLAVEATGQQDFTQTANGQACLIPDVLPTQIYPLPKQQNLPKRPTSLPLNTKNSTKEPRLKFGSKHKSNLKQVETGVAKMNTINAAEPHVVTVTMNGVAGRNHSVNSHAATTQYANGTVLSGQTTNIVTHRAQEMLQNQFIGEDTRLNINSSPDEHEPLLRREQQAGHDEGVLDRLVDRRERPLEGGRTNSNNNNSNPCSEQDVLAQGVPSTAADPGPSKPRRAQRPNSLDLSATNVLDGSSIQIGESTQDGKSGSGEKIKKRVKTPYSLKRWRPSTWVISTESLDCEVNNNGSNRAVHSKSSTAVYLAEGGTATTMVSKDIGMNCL
FLT3, sequence (P36888 27-993): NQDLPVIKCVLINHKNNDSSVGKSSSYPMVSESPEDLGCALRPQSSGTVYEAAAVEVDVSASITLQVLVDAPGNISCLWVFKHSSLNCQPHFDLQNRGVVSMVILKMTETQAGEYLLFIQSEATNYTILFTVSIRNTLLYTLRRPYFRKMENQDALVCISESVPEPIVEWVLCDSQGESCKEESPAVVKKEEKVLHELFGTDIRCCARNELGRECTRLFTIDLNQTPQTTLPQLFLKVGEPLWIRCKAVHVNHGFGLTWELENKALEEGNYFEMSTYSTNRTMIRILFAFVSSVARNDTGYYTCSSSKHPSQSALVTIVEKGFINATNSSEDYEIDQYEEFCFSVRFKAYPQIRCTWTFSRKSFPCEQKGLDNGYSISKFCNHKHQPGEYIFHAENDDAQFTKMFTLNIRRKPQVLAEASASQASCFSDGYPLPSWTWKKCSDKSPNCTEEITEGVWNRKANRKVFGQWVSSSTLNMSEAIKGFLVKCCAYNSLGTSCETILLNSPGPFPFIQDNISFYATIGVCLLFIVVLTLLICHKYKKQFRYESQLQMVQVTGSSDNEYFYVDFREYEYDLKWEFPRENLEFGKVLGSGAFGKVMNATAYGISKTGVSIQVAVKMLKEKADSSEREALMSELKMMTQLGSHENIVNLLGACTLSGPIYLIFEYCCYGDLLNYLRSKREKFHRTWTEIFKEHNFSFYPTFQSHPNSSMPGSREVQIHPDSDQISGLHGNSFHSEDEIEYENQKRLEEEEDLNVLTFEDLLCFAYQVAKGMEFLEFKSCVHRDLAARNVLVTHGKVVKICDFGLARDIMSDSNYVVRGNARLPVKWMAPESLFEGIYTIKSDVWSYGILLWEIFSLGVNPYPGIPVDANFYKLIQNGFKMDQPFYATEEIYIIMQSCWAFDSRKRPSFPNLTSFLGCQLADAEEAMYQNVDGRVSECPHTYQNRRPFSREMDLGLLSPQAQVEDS

## C=C1CCCCCCCCCC(CO)C1=O (stereo not shown) [EP009, 2-(Hydroxymethyl)-12-methylenecyclododecanone]
p38-alpha
  Kinase Activity (% of Control): 100 % of Control
AXL
  Kinase Activity (% of Control): 96 % of Control
ACVR1B
  Kinase Activity (% of Control): 96 % of Control
FLT3
  Kinase Activity (% of Control): 99 % of Control
AURKB
  Kinase Activity (% of Control): 99 % of Control
CHEK1
  Kinase Activity (% of Control): 100 % of Control
DCAMKL1
  Kinase Activity (% of Control): 100 % of Control
[1]
  effect on BaF/3 cell viability: no effect
EGFR
  Kinase Activity (% of Control): 100 % of Control
MAP3K4
  Kinase Activity (% of Control): 87 % of Control
KIT(D816V)
  Kinase Activity (% of Control): 100 % of Control
[2]
  Kinase Activity (% of Control): 100 % of Control
BMPR2
  Kinase Activity (% of Control): 75 % of Control
